Molecules are shown by their SMILES. “And” between values parts separate entries of the source, which are not always exact repeats. Identical values can stand only once. Like-named read-outs stand apart in the source and are kept apart here.

The subject of one assay is normotensive Wistar rats. The experiment in a line: Arterial hemodynamics by telemetry in normotensive Wistar rats. The format is in vivo, rat. How it is done:
The Dataquest A.R.T.™ acquisition and analysis system (Data Sciences International [DSI], St. Paul, MN) was employed to monitor and analyze hemodynamic data from conscious, freely moving rats surgically implanted with a telemetry pressure transmitter (PA-C40). Telemetry transmitter implantation was performed on rats under sterile conditions. Rats were anesthetized with isoflurane and body temperature was maintained with a heating pad during surgery. A laparotomy was performed to expose the abdominal aorta. The catheter tip of the telemetry transmitter was inserted into the abdominal aorta and secured with a 5-0 silk suture (Ethicon, Inc., Somerville, NJ). The abdominal incision was closed with uninterrupted suture (4-0 silk, Ethicon, Inc., Somerville, NJ) and the telemetry transmitter was placed in the abdominal cavity and secured to the abdominal wall. Approximately 100 µl of 0.25% marcaine was applied directly to the closed abdominal wall, and the skin was then closed with suture (4-0 Vicryl® absorbable, Ethicon, Inc., Somerville, NJ). Buprenorphine (0.05 mg/kg/day, subcutaneous [s.c.]) was administered immediately after the surgery for postoperative pain relief. After recovery from anesthesia, rats were returned to their home cages, placed on DSI receivers, and allowed a 5- to 14-day recovery period. Arterial hemodynamics were measured continuously and recorded throughout the study. For acute studies, analysis was based on hourly averages, for chronic studies, analysis was based on daily or weekly averages.
Spontaneously hypertensive rats (SHRs) (n=6, male, 230–250 g, 14 weeks of age) and Wistar rats (n=6, male, 230–250 g, 12 weeks of age) were implanted with telemetry transmitters as described above. Olinciguat was formulated as a suspension in a vehicle containing 0.5% methylcellulose and 0.2% Tween. Rats were p.o. dosed with a dosing volume of 5 ml/kg. […] Using plasma from tail vein, olinciguat plasma concentrations were determined at 1, 6, and 24 h post-dose on day 4 and reported as the mean from Wistar (n=3) and SHR (n=3). Hemodynamics were recorded hourly during a 24-h baseline period and over the first 3 days of dosing.
Maximum change from baseline of mean arterial pressure (MAP) was calculated using the 24-h pre-first dose average subtracted from the lowest MAP value recorded within 2 h following dosing. The 1-h post-dose change from baseline heart rate (HR) was calculated using the 3-h pre-first dose average subtracted from the 1-h post-dose average.
In the hemodynamic study in Wistar and SHR, hourly MAP data were analyzed using a repeated measures two-way ANOVA, with time and treatment group as independent variables. Significance at each timepoint was determined as compared to the vehicle control using a Dunnett's post-hoc test.

A further assay concerns the target T1, sGC (Homo sapiens, UniProt Q02108+Q02153).
T1 construct: HEK-293 cells endogenously expressing sGC were treated with olinciguat; host or cells: HEK-293
T1 sequence (Q02153 1-619): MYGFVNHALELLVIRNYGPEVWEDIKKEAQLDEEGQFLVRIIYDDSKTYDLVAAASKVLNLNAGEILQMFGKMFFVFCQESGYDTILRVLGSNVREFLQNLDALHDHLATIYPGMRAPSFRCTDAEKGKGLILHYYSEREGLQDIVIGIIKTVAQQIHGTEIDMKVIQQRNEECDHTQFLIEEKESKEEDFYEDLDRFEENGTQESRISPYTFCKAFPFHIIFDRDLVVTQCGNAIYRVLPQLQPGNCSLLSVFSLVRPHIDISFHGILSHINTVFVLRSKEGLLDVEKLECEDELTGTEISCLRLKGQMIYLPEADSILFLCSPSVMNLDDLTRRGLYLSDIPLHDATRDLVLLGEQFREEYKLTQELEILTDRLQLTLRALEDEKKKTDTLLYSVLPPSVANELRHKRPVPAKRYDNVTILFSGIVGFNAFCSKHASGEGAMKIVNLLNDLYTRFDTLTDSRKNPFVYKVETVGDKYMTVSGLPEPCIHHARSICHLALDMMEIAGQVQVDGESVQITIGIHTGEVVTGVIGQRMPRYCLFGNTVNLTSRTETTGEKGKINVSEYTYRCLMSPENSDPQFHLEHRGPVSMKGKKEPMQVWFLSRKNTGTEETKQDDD
T1 sequence (Q02108 1-690): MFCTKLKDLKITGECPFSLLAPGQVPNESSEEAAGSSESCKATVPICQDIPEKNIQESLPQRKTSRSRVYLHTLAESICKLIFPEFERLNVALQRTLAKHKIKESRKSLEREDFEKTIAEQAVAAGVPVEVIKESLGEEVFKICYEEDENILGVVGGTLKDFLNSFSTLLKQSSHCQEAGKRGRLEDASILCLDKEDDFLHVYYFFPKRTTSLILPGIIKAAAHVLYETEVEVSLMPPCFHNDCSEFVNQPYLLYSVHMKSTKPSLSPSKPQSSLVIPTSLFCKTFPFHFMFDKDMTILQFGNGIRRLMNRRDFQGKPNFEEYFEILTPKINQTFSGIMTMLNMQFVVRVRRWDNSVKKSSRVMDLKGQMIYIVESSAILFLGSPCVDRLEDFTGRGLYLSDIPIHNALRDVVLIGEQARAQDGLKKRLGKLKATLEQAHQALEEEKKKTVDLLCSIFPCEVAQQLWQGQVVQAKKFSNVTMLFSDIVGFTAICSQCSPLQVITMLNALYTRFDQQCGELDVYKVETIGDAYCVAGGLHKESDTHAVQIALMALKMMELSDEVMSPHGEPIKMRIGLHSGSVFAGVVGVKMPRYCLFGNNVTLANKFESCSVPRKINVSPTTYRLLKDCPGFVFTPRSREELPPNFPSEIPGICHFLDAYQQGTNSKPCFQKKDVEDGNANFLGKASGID
The experiment in a line: sGC whole cell assay (HEK-293, cGMP production). The format is cell-based. How it is done:
The human embryonic kidney (HEK)-293 whole cell assay was performed as described ([Tobin et al., 2018]). Briefly, HEK-293 cells (ATCC, Manassas, VA, #CRL-1573) were maintained in Dulbecco's modified Eagle's medium (DMEM) containing serum and antibiotics. Assays were performed in 384-well plates at 37°C by preincubating with 0.5 mM 3-isobutyl-1-methylxanthine (IBMX) in Hanks' Balanced Salt Solution (HBSS) containing calcium and magnesium for 15 min, then adding olinciguat with or without the NO donor diethylenetriamine NONOate (DETA), followed by a 20-min incubation. Cells were lysed with ice-cold 10% acetic acid then centrifuged, and cGMP levels in supernatants were determined by reverse-phase liquid chromatography with tandem mass spectrometry (LC-MS/MS). Concentration-response data were fit using a four-parameter fit (log(agonist) vs response – variable slope) using GraphPad Prism v.7.

For `NC(=O)[C@](O)(CNc1nc(-c2cc(-c3ccon3)n(Cc3ccccc3F)n2)ncc1F)C(F)(F)F` [olinciguat, (R)-3,3,3-trifluoro-2-(((5-fluoro-2-(1-(2-fluorobenzyl)-5-(isoxazol-3-yl)-1H-pyrazol-3-yl)pyrimidin-4-yl)amino)methyl)-2-hydroxypropanamide], the “MAP vs vehicle-treated rats” value with normotensive Wistar rats (1 mg/kg p.o. QD) is “not significantly different from vehicle at any time”; with normotensive Wistar rats (3 mg/kg p.o. QD) it was “lower only on the second and third day of dosing”; in the assay on normotensive Wistar rats (10 mg/kg p.o. QD), “lower on all 3 days of dosing”. In the assay with normotensive Wistar rats (10 mg/kg p.o. QD, day 3, 10 mg/kg), the “maximum absolute change in MAP” value is −11 ± 3 mmHg and −11^b mmHg. Also, the EC50 was 0.0738 µM at sGC (HEK-293 cells endogenously expressing sGC, in the presence of 10 µM DETA, geometric mean of 14 experiments, 95% CI 42.7 to 105 nM, read-out: EC50, cGMP production) and 0.0427 to 0.105 µM on sGC (Table 2 summary, 10 µM DETA, read-out: Human cellular sGC assay (HEK-293) EC50, olinciguat concentration (range = 95% CI)).
